Measurements from paper PMC9788418, “Design, Synthesis and Biological Evaluation of Syn and Anti-like Double Warhead Quinolinones Bearing Dihydroxy Naphthalene Moiety as Epidermal Growth Factor Receptor Inhibitors with Potential Apoptotic Antiproliferative Action” (Molecules, 2022).
Like-named read-outs stand apart in the source and are kept apart here.

What was measured:
[1] = system: Panc-1 (pancreas cancer cell line); experiment: Antiproliferative assay; format: cell-based, human; settings: read-out: Antiproliferative Activity IC50 ± SEM, Panc-1
Protocol: (§1) 4.2. Biological evaluation
4.2.1. Cytotoxic activity using MTT Assay and evaluation of IC50 […]
cells were seeded at a density of 10^4 cells mL-1 in flat-bottomed culture plates containing 96 wells each. After 24 h, medium was removed from the plates and the compounds in (in 0.1% DMSO) were added (in 200 μL medium to yield a final concentration of 0.1% v/v) to the wells of plates. A single […]
incubation, medium was removed completely from the plates followed by addition of MTT (0.4 mg/mL in medium) to each well and subsequent incubation of plates for 3h. MTT (along with the medium) was removed and DMSO (150μL) was added to each well of the culture plates, followed by vortexing and subsequent measurement of absorbance (at 540 nm) using microplate reader. The data […]
(§2) 4.2.1.2. Assay for antiproliferative effect
(§3) To explore the antiproliferative potential of compounds MTT assay was performed according to previously reported procedure using different cell lines to explore the antiproliferative potential of compounds propidium iodide fluorescence assay was performed using different cell lines. To calculate the total nuclear DNA, a fluorescent dye (propidium iodide, PI) is used which can attach to the DNA, thus offering a quick and precise technique. PI cannot pass through the cell membrane and its signal intensity can be considered as directly proportional to quantity of cellular DNA. Cells whose cell membranes are damaged or have changed permeability are counted as dead ones. The assay was performed by seeding the cells of different cell lines at a density of 3000-7500 cells/well (in 200µl […]
(§4) atmospheric conditions. The medium was removed; the compounds were added to the plates at 10 µM concentrations (in 0.1% DMSO) in triplicates, followed by incubation for 48 h. DMSO (0.1%) was used as control. After incubation, medium was removed followed by the addition of PI (25 µl, 50µg/mL in water/medium) to each well of the plates. At -80 °C, the plates were allowed to freeze for 24 h, followed by thawing at 25 °C. A fluorometer (Polar-Star BMG Tech) was used to record the readings at excitation and emission wavelengths of 530 and 620 nm for each well. The percentage cytotoxicity of compounds was calculated using the following formula:
(§5) Where ATC= Absorbance of treated cells and AC= Absorbance of control. […]
(§6) positive control in the assay.

[2] = target: T1, EGFR (Homo sapiens, UniProt P00533); experiment: EGFR inhibitory assay (EGFR-TK, DELFIA/time-resolved fluorometry)
Protocol: EGFR-TK assay was performed to evaluate the inhibitory potency of novel compounds against
EGFR. Baculoviral expression vectors including pBlueBacHis2B and pFASTBacHTc were used
5ʹ upstream to the EGFR sequence comprised a sequence that encoded (His)6. Sf-9 cells were infected for 72h for protein expression. The pellets of Sf-9 cells were solubilized in a buffer containing sodium vanadate (100 µM), aprotinin (10 µg/mL), triton (1%), HEPES buffer (50mM), ammonium molybdate (10 µM), benzamidine HCl (16 µg/mL), NaCl (10 mM), leupeptin (10 µg/mL) and pepstatin (10 µg/mL) at 0°C for 20 min at pH 7.4, followed by centrifugation for 20 min.
To eliminate the non-specifically bound material, a Ni-NTA super flow packed column was used to pass through and wash the crude extract supernatant first with 10 mM and then with 100 mM imidazole. Histidine-linked proteins were first eluted with 250 and then with 500 mM imidazole after (1 picture or pasted object on this page, not shown here)
dialysis against NaCl (50 mM), HEPES (20 mM), glycerol (10%) and 1 µg/mL each of aprotinin, leupeptin and pepstatin for 120 min. The purification was performed either at 4 °C or on ice. To
(§10) record autophosphorylation level, EGFR kinase assay was carried out based on DELFIA/Time-
(§11) Resolved Fluorometry. The compounds were first dissolved in DMSO absolute, after dilution to
Each compound (10 µL) was incubated
(§12) with recombinant enzyme (10 µL, 5 ng for EGFR, 1:80 dilution in 100 mM HEPES) for 10 min at
(§13) 25 °C, after the addition of 5X buffer (10 µL, containing 2 mM MnCl2, 100 µM Na3VO4, 20 mM HEPES and 1 mM DTT) and ATP-MgCl2 (20 µL, containing 0.1 mM ATP and 50 mM MgCl2) and
(§14) incubation for 1h. The negative and positive controls were included in each plate by the incubation
(§15) of enzyme either with or without ATP-MgCl2. The liquid was removed after incubation and the plates
(§16) were washed thrice using wash buffer. Europium-tagged antiphosphotyrosine antibody (75 µL, 400
(§17) ng) was added to each well followed by incubation of 1h and then washing of the plates using buffer.
(§18) The enhancement solution was added to each well and the signal was recorded at excitation and
(§19) The autophosphorylation percentage inhibition by compounds was calculated using the following equation:

[3] = system: A-549 (epithelial cancer cell line); experiment: Antiproliferative assay; format: cell-based, human; settings: read-out: Antiproliferative Activity IC50 ± SEM, A-549
Protocol: as §2, §3, §4, §5, §6

[4] = system: HT-29 (colon cancer cell line); experiment: Antiproliferative assay; format: cell-based, human; settings: read-out: Antiproliferative Activity IC50 ± SEM, HT-29
Protocol: as §2, §3, §4, §5, §6

[5] = system: MCF-7 (breast cancer cell line); experiment: Antiproliferative assay; format: cell-based, human; settings: read-out: Antiproliferative Activity IC50 ± SEM, MCF-7
Protocol: as §2, §3, §4, §5, §6

[6] = Cell viability assay (MTT) on normal cell line; format: cell-based, human; settings: human, four days
Protocol: (§7) A cell viability test was performed using MCF-10A (human mammary gland epithelial) cell line to investigate the effect of 4a–e and 7a–e on normal cell lines. In this investigation, a concentration of 50 µM of the studied compound is employed for four days, after which cell viability is assessed.
as §1
(§8) 4.2.1. Cytotoxic activity using MTT Assay and evaluation of IC50
(§9) MTT assay was carried out to study the effect of compounds on mammary epithelial cells (MCF-10A). The medium in which cells were propagated contained Dulbecco's modified Eagle's medium (DMEM)/ Ham's F-12 medium (1:1) supplemented with epidermal growth factor (20 ng/mL), hydrocortisone (500 ng/mL), insulin (10 μg/mL), 2 mM glutamine and 10% foetal calf serum. After every 2-3 days, the cells were passaged using trypsin ethylenediamine tetra acetic acid (EDTA). The cells were seeded at a density of 10^4 cells mL-1 in flat-bottomed culture plates containing 96 wells each. After 24 h, medium was removed from the plates and the compounds in (in 0.1% DMSO) were added (in 200 μL medium to yield a final concentration of 0.1% v/v) to the wells of plates. A single compound was designated with four wells followed by incubation of plates for 96h at 37°C. After incubation, medium was removed completely from the plates followed by addition of MTT (0.4 mg/mL in medium) to each well and subsequent incubation of plates for 3h. MTT (along with the medium) was removed and DMSO (150μL) was added to each well of the culture plates, followed by vortexing and subsequent measurement of absorbance (at 540 nm) using microplate reader. […]

[7] = system: caspase-3; experiment: Caspase-3 activation assay; settings: A-549, vs control untreated cells
Protocol: as §10, §11
Each compound (10 µL) was incubated
as §12, §13, §14, §15, §16, §17, §18, §19

[8] = system: four tested cancer cell lines (A-549, MCF-7, Panc-1, HT-29); experiment: Antiproliferative assay, average over the four cell lines; format: cell-based, human; settings: for GI50: mean of the four cancer cell lines
Protocol: The newly synthesized compounds were tested for antiproliferative activity against four different types of cancer cells: A-549 (epithelial cancer cell line), MCF-7 (breast cancer cell line), Panc-1 (pancreas cancer cell line), and HT-29 (colon cancer cell line).
After 24 h, medium was removed from the plates and the compounds in (in 0.1% DMSO) were added (in 200 μL medium to yield a final concentration of 0.1% v/v) to the wells of plates. A single compound was designated with four wells followed by incubation of plates for 96h at 37°C. After incubation, medium was removed completely from the plates followed by addition of MTT (0.4 mg/mL in medium) to each well and subsequent incubation of plates for 3h. MTT (along with the medium) was removed and DMSO (150μL) was added to each well of the culture plates, followed by vortexing and subsequent measurement of absorbance (at 540 nm) using microplate reader. The data are shown as percentage inhibition of proliferation in comparison with controls containing 0.1% 4.2.1.2. Assay for antiproliferative effect
To explore the antiproliferative potential of compounds MTT assay was performed according to previously reported procedure using different cell lines to explore the antiproliferative potential of compounds propidium iodide fluorescence assay was performed using different cell lines. To calculate the total nuclear DNA, a fluorescent dye (propidium iodide, PI) is used which can attach to the DNA, thus offering a quick and precise technique. PI cannot pass through the cell membrane and its signal intensity can be considered as directly proportional to quantity of cellular DNA. Cells whose cell membranes are damaged or have changed permeability are counted as dead ones. The assay was performed by seeding the cells of different cell lines at a density of 3000-7500 cells/well (in 200µl medium) in culture plates followed by incubation for 24h at 37 °C in humidified 5% CO2/95% air atmospheric conditions. The medium was removed; the compounds were added to the plates at 10 µM concentrations (in 0.1% DMSO) in triplicates, followed by incubation for 48 h. DMSO (0.1%) was used as control. After incubation, medium was removed followed by the addition of PI (25 µl, 50µg/mL in water/medium) to each well of the plates. At -80 °C, the plates were allowed to freeze for 24 h, followed by thawing at 25 °C. A fluorometer (Polar-Star BMG Tech) was used to record the readings at excitation and emission wavelengths of 530 and 620 nm for each well. The percentage cytotoxicity of compounds was calculated using the following formula:
Where ATC= Absorbance of treated cells and AC= Absorbance of control. Erlotinib was used as positive control in the assay.

[9] = target: T1, EGFR; parameters: 645–1186); His6 (N); made in house; host or cells: Sf-9 insect cells (baculovirus; pBlueBacHis2B and pFASTBacHTc vectors; settings: cited from earlier work
[10] = system: caspase-3; parameters: method as in PMID 35195309; settings: human Panc-1 cancer cells; cited from earlier work
[11] = system: Bcl-2; parameters: method as in PMID 35195309; settings: cited from earlier work
[12] = system: caspase-9; parameters: method as in PMID 35195309; settings: human Panc-1 cancer cells; cited from earlier work
[13] = system: Cytochrome-C; parameters: method as in PMID 35195309; settings: human Panc-1 cancer cells; cited from earlier work
[14] = system: four cancer cell lines; parameters: method as in PMID 35195309; settings: cited from earlier work
[15] = system: Bax; parameters: method as in PMID 35195309; settings: vs normal untreated cells; cited from earlier work
[16] = system: MCF-10A (human mammary gland epithelial) cell line; experiment: Cell viability assay (MTT) on normal cell line; format: cell-based; settings: 50 µM, four days
Protocol: as §7, §1, §8, §9

[17] = MCF-10A mammary gland epithelial cells

T1 sequence (P00533 669-1210): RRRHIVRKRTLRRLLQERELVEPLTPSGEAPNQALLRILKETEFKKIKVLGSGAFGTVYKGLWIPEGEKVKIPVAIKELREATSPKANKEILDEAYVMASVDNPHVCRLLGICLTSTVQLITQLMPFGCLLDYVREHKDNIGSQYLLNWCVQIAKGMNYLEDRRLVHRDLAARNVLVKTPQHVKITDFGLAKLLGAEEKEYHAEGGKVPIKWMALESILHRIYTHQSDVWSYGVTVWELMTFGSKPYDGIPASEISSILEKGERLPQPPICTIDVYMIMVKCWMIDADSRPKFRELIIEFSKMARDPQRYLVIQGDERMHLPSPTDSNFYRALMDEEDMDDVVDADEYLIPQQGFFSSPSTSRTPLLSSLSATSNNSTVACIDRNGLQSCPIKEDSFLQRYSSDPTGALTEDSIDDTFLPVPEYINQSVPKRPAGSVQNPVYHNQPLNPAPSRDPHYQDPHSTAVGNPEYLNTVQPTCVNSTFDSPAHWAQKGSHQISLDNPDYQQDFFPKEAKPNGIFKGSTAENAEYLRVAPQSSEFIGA

Compound	IC50 ([1]; Homo sapiens, PANC-1) [nM]	IC50 ([3]; Homo sapiens, A549) [nM]	IC50 ([4]; Homo sapiens) [nM]	IC50 ([5]; Homo sapiens, MCF7) [nM]	GI50 ([8]; Homo sapiens) [nM]	melting point [°C]	viability at 96 h, 50 µM [6, 17] [%]	other results
Cc1cccc2c(-n3cc(COc4cccc5c(OCc6cn(-c7cc(=O)[nH]c8c(C)cccc78)nn6)cccc45)nn3)cc(=O)[nH]c12 [Compound 7d, 4,4′-(((naphthalene-1,5-diylbis(oxy))bis(methylene))bis(1H-1,2,3-triazole-4,1-diyl))-bis-(8-methylquinolin-2(1H)-one)]	57 ± 5	50 ± 5	57 ± 5	53 ± 5	54			IC50 [2]: 97 ± 9 nM; fold less effective than erlotinib (EGFR IC50) ([2]; relative to erlotinib): roughly 1.3 fold; viability at 96 h, 50 µM ([6]; MCF-10A mammary gland epithelial cells (normal cell line)): 89%; Caspase-3 Fold Change [7]: 7.40
COc1ccc2[nH]c(=O)cc(-n3cc(COc4cccc5c(OCc6cn(-c7cc(=O)[nH]c8ccc(OC)cc78)nn6)cccc45)nn3)c2c1 [Compound 7c, 4,4′-(((naphthalene-1,5-diylbis(oxy))bis(methylene))bis(1H-1,2,3-triazole-4,1-diyl))-bis-(6-methoxyquinolin-2(1H)-one)]	75 ± 7	70 ± 7	76 ± 7	74 ± 7	74	> 360	91	
O=C(CSc1nnc(Cn2cc(-c3ccccc3)nn2)o1)Nc1nc(-c2ccc(Cl)cc2)cs1 [Compound VI]								IC50 [9]: 110 nM; Caspase-3 level increase [10]: 7.80 times; Bcl-2 level decrease [11]: 6.3 fold; Caspase-9 level increase [12]: 19.30 times; Cytochrome-C level increase [13]: 13 times; GI50 [14]: 230 nM; Bax level elevation [15]: 40 fold
COc1ccc2[nH]c(=O)cc(-n3cc(COc4cccc5cccc(OCc6cn(-c7cc(=O)[nH]c8ccc(OC)cc78)nn6)c45)nn3)c2c1 [Compound 4c, 4,4′-(((naphthalene-1,8-diylbis(oxy))bis(methylene))bis(1H-1,2,3-triazole-4,1-diyl))-bis-(6-methoxyquinolin-2(1H)-one)]	83 ± 8	78 ± 8	81 ± 8	79 ± 8	80	> 360	87	
O=c1cc(-n2cc(COc3cccc4c(OCc5cn(-c6cc(=O)[nH]c7ccccc67)nn5)cccc34)nn2)c2ccccc2[nH]1 [Compound 7a, 4,4′-(((naphthalene-1,5-diylbis(oxy))bis(methylene))bis(1H-1,2,3-triazole-4,1-diyl))-bis-(quinolin-2(1H)-one)]	62 ± 6	57 ± 6	65 ± 6	59 ± 6		> 360	89	
CN(C)c1ccc(/C=C/C(=O)c2ccc3ncc(C(N)=O)c(Nc4ccc(Cl)cc4)c3c2)cc1 [III]								IC50 [9]: 5200 nM
4,4′-(((naphthalene-1,8-diylbis(oxy))bis(methylene))bis(1H-1,2,3-triazole-4,1-diyl))-bis-(8-methylquinolin-2(1H)-one) [Compound 4d]								IC50 ([1]; Panc-1): 98 ± 9 nM; IC50 ([3]; A-549): 90 ± 9 nM; IC50 [4]: 97 ± 9 nM; IC50 ([5]; MCF-7): 95 ± 9 nM; Cell Viability % [16]: 86%; GI50 [8]: 95 nM; times less potent than 4b (GI50) ([8]; relative to 4b): at least twofold less potent
